Among the data in patent US5698391A, “Methods for synthetic unrandomization of oligomer fragments” (ISIS Pharmaceuticals, Inc., priority 1994, dated 1997) are Kd values, retold here.

For the series, the system named is HIV gag-pol stem loop. In words: Gel shift, oligonucleotide set binding to HIV gag-pol triple strand. The conditions noted are these: pH 5, 100 mM NaCl, 2 mM MgCl2, 1 mM spermidine. The source says:
Binding to double stranded DNA or RNA is possible by formation of a three stranded complex, with the incoming third strand binding in the major groove of the duplex RNA or DNA. FIG. 6 illustrates a double stranded RNA structure from HIV known as the gag-pol stem loop (Vickers and Ecker, Nucleic Acids Research). One of the limitations in the design of triple strand interactions is the need to have a long stretch of homopurines as a target. The 3' (right) side of the gag-pol stem loop is homopurine except for a pair of cytosines near the bottom of the stem. To determine the best oligonucleotide to bind to the gag-pol stem loop, a group of RNA oligonucleotide sets was designed to bind to the purine-rich strand of the gag-pol stem-loop by Hoogstein base pairing and prepared in accordance with Examples 2 and 6. Binding to the gag-pol stemloop was measured by gel shift analysis as previously described in Example 8 with the following modifications: the radiolabeled gag-pol RNA was incubated with the oligonucleotide in 100 mM NaCl, 25 mM TRIS acetate (pH 5), 2 mM MgCl2, 1 mM spermidine. The gel was 15% acrylamide with 50 mM NaCl and 2 mM MgCl2 added to the running buffer.
A general note: A gel shift assay detects complexes by their altered migration in electrophoresis.

pKd: −log10 of the molar value.

As to “A2: RNA oligonucleotide, SEQ ID NO: 10 (CCCUUCCCAUC; RNA, backbone not given here) [Set A2]”, the pKd (usually −log10 of the Kd, conventionally taken in molar units) is 5.00. For “B2: RNA oligonucleotide, SEQ ID NO: 11 (CCCUUCCCGUC; RNA, backbone not given here) [Set B2]”, the pKd was 5.00. In the case of “D2: RNA oligonucleotide, SEQ ID NO: 13 (CCCUUCCCUUC; RNA, backbone not given here) [Set D2]”, the pKd is 5.00. With “C2: RNA oligonucleotide, SEQ ID NO: 12 (CCCUUCCCCUC; RNA, backbone not given here) [Set C2]”, the pKd was 6.00.
